Laboratory results published in US9307763B2, “Ligands for odor receptors and olfactory neurons” (The Regents of the University of California, priority 2010, dated 2016).

Target: T1, Or59b, ab2A (Drosophila melanogaster, UniProt Q9W1P8)
T1 construct: The 9 Ors tested are expressed in well-defined olfactory receptor neurons (ORNs) housed within the large and small basiconic sensilla; from tissue; host or cells: D. melanogaster antenna, ab2A olfactory receptor neuron (in vivo recording)
T1 sequence (Q9W1P8 1-398): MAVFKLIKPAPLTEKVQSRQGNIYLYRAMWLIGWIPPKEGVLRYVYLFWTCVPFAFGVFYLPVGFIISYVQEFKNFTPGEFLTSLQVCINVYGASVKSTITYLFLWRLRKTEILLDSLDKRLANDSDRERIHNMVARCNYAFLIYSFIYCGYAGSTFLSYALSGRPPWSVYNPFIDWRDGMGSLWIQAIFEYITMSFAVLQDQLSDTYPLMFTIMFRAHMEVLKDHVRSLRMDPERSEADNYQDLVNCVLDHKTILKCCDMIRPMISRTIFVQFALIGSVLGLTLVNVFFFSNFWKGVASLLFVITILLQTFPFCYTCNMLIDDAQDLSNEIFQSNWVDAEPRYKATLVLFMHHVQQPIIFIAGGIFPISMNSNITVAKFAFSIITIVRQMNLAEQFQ
T1 sequence (Q9VNB5 1-486 partner): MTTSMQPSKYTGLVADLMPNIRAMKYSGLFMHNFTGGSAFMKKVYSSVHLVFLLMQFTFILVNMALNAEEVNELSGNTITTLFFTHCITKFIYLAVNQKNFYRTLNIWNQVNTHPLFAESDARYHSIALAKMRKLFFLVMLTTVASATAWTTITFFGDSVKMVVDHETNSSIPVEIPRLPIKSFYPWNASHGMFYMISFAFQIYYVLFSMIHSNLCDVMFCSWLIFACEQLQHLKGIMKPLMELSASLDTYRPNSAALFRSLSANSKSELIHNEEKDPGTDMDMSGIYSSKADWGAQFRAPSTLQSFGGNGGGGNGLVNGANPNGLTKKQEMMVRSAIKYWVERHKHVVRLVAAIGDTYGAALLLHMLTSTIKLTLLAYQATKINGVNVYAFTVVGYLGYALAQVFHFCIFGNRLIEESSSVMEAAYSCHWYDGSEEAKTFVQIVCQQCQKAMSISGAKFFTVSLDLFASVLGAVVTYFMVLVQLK
Test: single-sensillum electrophysiology
Assay type: in vivo
Details: odorant at 10^-2
Description: The results of the in silico screen are provocative. However in order to verify whether these predictions were meaningful, functional evidence was obtained. In order to validate the success of the in silico predictions the responses of 9 Odor receptors using single-sensillum electrophysiology directly on the Drosophila melanogaster antenna were analyzed. For each Odor receptor several odorants were tested from the top 500 predicted hits. A sampling of ˜192 novel odorants were tested with ˜11-21 novel odorants tested for each receptor, which were scattered somewhat randomly within the top 500 predictions for each receptor, providing a relatively unbiased set of chemical structures.
To test identified compounds any number of biological assays can be used to measure ORN activity in the presence of a putative ligand/compounds. […] For the purpose of testing each of these volatile compounds the compounds were diluted to ˜10^−2 in paraffin oil or distilled water. The 9 Ors tested are expressed in well-defined olfactory receptor neurons (ORNs) housed within the large and small basiconic sensilla (ab1-ab7) on the antenna. A previously identified diagnostic panel of odorants was used to distinguish individual classes of sensilla (ab1-ab7) and therefore identified the sensilla that contained the target Or expressing ORN. […]

| Compound | activation of odor receptor (firing rate) [spikes/sec] |
| --- | --- |
| CC(=O)OC(C)C [isopropyl acetate] | > 250 |

Test system: CO2 responsive neurons
Test: not given
Details: […]; averaged across the top 2 responders of the 4 species; cited from earlier work

| Compound | Final Activity |
| --- | --- |
| c1ccc2[nH]ccc2c1 [Indole] | 21 |
| CCCC(=O)Cl [butyryl chloride] | −39 |
| Cc1ccc(C(C)C)c(O)c1 [Thymol] | 15 |
| CC(=O)CCO [4-hydroxy-2-butanone] | −11 |
| CCCCCCI [1-iodohexane] | 3 |
| CC(=O)c1ccccc1 [acetophenone] | 15 |
| CCCCCC(O)CC (centres unmarked) [3-octanol] | −14 |
| CCC/C=C/C=O [(E)2-hexenal] | 0 |
| CCCCCCC=O [heptanal] | −21 |
| COc1ccccc1 [Anisole] | 6 |
| Cc1cnc(C)cn1 [2,5-dimethylpyrazine] | 26 |
| O=Cc1ccccc1 [Benzaldehyde] | 6 |
| CCCCCCCC=O [octanal] | −20 |
| CCC=O [propionaldehyde] | −68 |
| Cc1nc(C)c(C)s1 [2,4,5-trimethylthiazole] | 5 |
| c1cscn1 [thiazole] | 100 |
| CCCCC [pentane] | −31 |
| CCCCCCBr [1-bromohexane] | 3 |
| C=C(C)[C@H]1CC=C(C)CC1 [Limonene] | −2 |
| O=CCc1ccccc1 [phenylacetaldehyde] | 3 |
| CC(=O)C(C)=O [2,3-butanedione] | −99 |
| CCCCCC(C)O (centres unmarked) [2-heptanol] | −39 |
| CCCCCCC(=O)CC [3-nonanone] | 2 |

| Compound | Final Activity |
| --- | --- |
| CCCCCCCC [octane] | −34 |
| CCCC(=O)O [butyric acid] | −94 |
| CSCCC=O [Methional] | 0 |
| CC(=O)C(=O)O [pyruvic acid] | 2 |
| CC(C)=CCCC(C)O (centres unmarked) [6-methyl-5-hepten-2-ol] | 0 |
| CCCCCCOC(C)=O [hexyl acetate] | −12 |
| O=C(c1ccccc1)c1ccccc1 [Benzophenone] | 8 |
| CCCC(=O)CCC [4-heptanone] | 2 |
| CCc1ncc(C)nc1C [2-ethyl-3,5-dimethylpyrazine] | 8 |
| O=C1CCCCC1 [Cyclohexanone] | 48 |
| CCCCC(=O)OCC [ethyl valerate] | 5 |
| CCCCCC[SiH3] [hexylsilane] | 3 |
| C=CCc1ccc(O)c(OC)c1 [Eugenol] | 1 |
| C/C=C\CCC [cis-2-hexene] | 5 |
| CCCCCCCCO [octanol] | −35 |
| CCCC=O [butanal] | −85 |
| CC(=O)c1cccs1 [2-acetylthiophene] | 31 |
| CSCCCC=O [4-(methylthio)-1-butanal] | −15 |
| C=C(C)C1CC=C(C)C(=O)C1 (centres unmarked) [Carvone] | 4 |
| CCCNCCO [2-(propylamino)-ethanol] | −39 |
| COCC(C)=O [methoxyacetone] | 6 |
| CO [Methanol] | −14 |
| OCCCCCO [1,5-pentanediol] | 0 |

| Compound | Final Activity |
| --- | --- |
| CCCCCCCl [1-chlorohexane] | 8 |
| CCCCCCCC(=O)CC [3-decanone] | 1 |
| c1cnccn1 [pyrazine] | −8 |
| CCCCCO [pentanol] | −41 |
| CC(C)=CCC/C(C)=C/CO [Geraniol] | 8 |
| Cc1ccccc1O [2-methylphenol] | 24 |
| CCCCCCCCOC(C)=O [octyl acetate] | −15 |
| CCCCC(=O)O [pentanoic acid] | −26 |
| CC(=O)c1ccccc1 [Phenylethanone] | 5 |
| COC(=O)C(C)=O [methyl pyruvate] | −100 |
| Cc1ccc(C)s1 [2,5-dimethylthiophene] | −9 |
| CC/C=C\CCO [cis-3-hexen-1-ol] | 10 |
| CCCCCCC(=O)O [heptanoic acid] | −14 |
| CCCCCCCCCO [Nonanol] | −12 |
| C=CC(O)CCCC (centres unmarked) [1-hepten-3-ol] | 0 |
| CCC(C)=O [butanone] | −25 |
| CC12CCC(C1)C(C)(C)C2=O (centres unmarked) [Fenchone] | −2 |
| CCCCCCCO [heptanol] | −38 |
| CCCCC(O)CC (centres unmarked) [3-heptanol] | −16 |
| CCC(=O)C(C)=O [2,3-pentanedione] | −55 |
| c1ccc2ccccc2c1 [naphthalene] | −14 |
| CC=C(C)CC [3-methyl-2-pentene] | 5 |
| CCCCCOC(C)=O [pentyl acetate] | −15 |

| Compound | Final Activity |
| --- | --- |
| CCCCCC=O [hexanal] | −32 |
| CC(C)O [Isopropyl Alcohol] | 3 |
| CCCCCC(=O)O [hexanoic acid] | −16 |
| C=CCc1ccc(OC)c(OC)c1 [Eugenol Methyl Ether] | −9 |
| CC(=O)OCCC(C)C [Isoamyl Acetate] | −2 |
| CC1CCC(=O)O1 (centres unmarked) [gamma-valerolactone] | −5 |
| CCCCCCS [1-hexanethiol] | 3 |
| CC(C)=CCCC(C)CC=O (centres unmarked) [Citronellal] | 8 |
| CCCCC(C)O (centres unmarked) [2-hexanol] | 2 |
| CCC(=O)O [propionic acid] | −32 |
| CCCCC(=O)C(C)C [2-methyl-3-heptanone] | −26 |
| CCCCCCCOC(C)=O [heptyl acetate] | −8 |
| CCC(=O)Cl [propionyl chloride] | −73 |
| Cc1ccc(O)cc1 [4-methylphenol] | 3 |
| C=CC(O)CCCCC (centres unmarked) [1-octen-3-ol] | −27 |
| CCCCCCO [hexanol] | −70 |
| CCCCC=O [pentanal] | −51 |
| CCOC(C)=O [Ethyl Acetate] | 8 |
| CCCCCCCC(=O)O [octanoic acid] | −21 |
| CC(=O)CF [fluoroacetone] | 10 |
| CCCCCCC [heptane] | −29 |
| CC1CCC(C(C)C)C(O)C1 (centres unmarked) [Menthol] | −2 |

Same assay, conditions: in vivo; cited from earlier work

| Compound | Final Activity |
| --- | --- |
| CCCCOC(C)=O [butyl acetate] | −28 |
| CC(=O)O [Acetic Acid] | −7 |
| CCCCCC [hexane] | −25 |
| CCO [Ethanol] | −16 |
| butanol | −25 |
| c1ccncc1 [pyridine] | 99 |
